In brackets after ≈: the same amount, converted by molar mass.
Experiments:
Assay type in all cases: cell-based
[1] = test system: ATCC13883 strain (Klebsiella pneumoniae); test: Checkerboard antibacterial synergistic activity test with polymyxin E (FIC); design: key: FIC≤0.5 synergy; 0.5–1 additive; 1–2 indifferent; ≥2 antagonism; conditions: combined with polymyxin E
Method in brief: (§1)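 Polymyxin E was diluted in MH broth to 16–0.015 μg/ml and the test compound to 256–4 μg/ml (two-fold series, pre-mixing concentrations), combined checkerboard-style in 96-well plates with bacterial suspension and blank controls, and incubated at 37° C. for 16 h. FIC ≤0.5 was scored synergistic, >0.5 to <1 additive, 1–2 indifferent, ≥2 antagonistic.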

[2] = test system: ATCC19606 strain (Acinetobacter baumannii); test: as above; design: key: FIC≤0.5 synergy; 0.5–1 additive; 1–2 indifferent; ≥2 antagonism; conditions: combined with polymyxin E
Method in brief: as §1

[3] = test system: ATCC25922 strain (Escherichia coli); test: as above; design: key: FIC≤0.5 synergy; 0.5–1 additive; 1–2 indifferent; ≥2 antagonism; conditions: combined with polymyxin E
Method in brief: as §1

[4] = test system: ATCC9027 strain (Pseudomonas aeruginosa); test: as above; design: key: FIC≤0.5 synergy; 0.5–1 additive; 1–2 indifferent; ≥2 antagonism; conditions: combined with polymyxin E
Method in brief: as §1

[5] = test system: ATCC13883 strain (Klebsiella pneumoniae); test: Broth microdilution, antibacterial activity of the compound used alone; conditions: for MIC: read-out: Antibacterial activity of the compound of Formula I, ATCC13883
Source text: (§2) The broth microdilution method was used to test the antibacterial effects of the compounds of the present invention against various Gram-negative bacterial strains when used alone.

[6] = test system: ATCC19606 strain (Acinetobacter baumannii); test: as above; conditions: for MIC: read-out: Antibacterial activity of the compound of Formula I, ATCC19606
Source text: as §2

[7] = test system: ATCC25922 strain (Escherichia coli); test: as above; conditions: for MIC: read-out: Antibacterial activity of the compound of Formula I, ATCC25922
Source text: as §2

[8] = test system: ATCC9027 strain (Pseudomonas aeruginosa); test: as above; conditions: for MIC: read-out: Antibacterial activity of the compound of Formula I, ATCC9027
Source text: as §2

MIC [5] [µg/mL] | MIC [6] [µg/mL] | MIC [7] [µg/mL] | MIC [8] [µg/mL] | SMILES | Synergistic activity (FIC value) ATCC13883 [1] | Synergistic activity (FIC value) ATCC19606 [2] | Synergistic activity (FIC value) ATCC25922 [3] | Synergistic activity (FIC value) ATCC9027 [4] | Antibacterial activity of the compound of Formula I, ATCC13883 [5] [µg/mL] | Antibacterial activity of the compound of Formula I, ATCC19606 [6] [µg/mL] | Antibacterial activity of the compound of Formula I, ATCC25922 [7] [µg/mL] | Antibacterial activity of the compound of Formula I, ATCC9027 [8] [µg/mL]
256 (≈ 870 µM) | 256 (≈ 870 µM) | 256 (≈ 870 µM) | 256 (≈ 870 µM) | NC(N)=Nc1nc(-c2cccc(-c3ccccc3)c2)cs1 [Compound I-74] | 0.33 | 0.15 | 0.39 | 0.62 | – | – | – | –
– | – | – | – | Cc1sc(N=C(N)N)nc1-c1cccc(S(C)(=O)=O)c1-c1ccccn1 [Compound I-76] | 0.63 | 0.75 | 0.5 | 0.56 | 256 | 256 | 256 | 256
– | – | – | – | C[Si](C)(C)c1ccc(-c2csc(N=C(N)N)n2)cc1 [Compound I-22] | 0.38 | 0.75 | 0.5 | 0.63 | 256 | 256 | 256 | 256
– | – | – | – | CC(C)c1ccccc1-c1nc(N=C2NCCCN2)sc1Br [Compound I-164] | 0.33 | 0.15 | 0.39 | 0.62 | 256 | 256 | 256 | 256
– | – | – | – | NC(N)=Nc1nc(-c2cc(Cl)c(O)c(Cl)c2)co1 [Compound I-40] | 0.19 | 0.13 | 0.52 | 0.51 | 256 | 256 | 256 | 256
– | – | – | – | CSc1cc2cc(C)ccn2c1-c1coc(N=C2NCCCN2)n1 [Compound I-192] | 0.38 | 0.5 | 0.38 | 0.63 | 256 | 256 | 256 | 256
256 (≈ 784 µM) | 256 (≈ 784 µM) | 256 (≈ 784 µM) | 256 (≈ 784 µM) | NC(N)=Nc1nc(-c2ccc(Sc3ccccc3)cc2)cs1 [Compound I-107] | 1.25 | 1.25 | 0.53 | 1.25 | – | – | – | –
– | – | – | – | N#Cc1ccc(-c2csc(N=C3NCCCN3)n2)c(Br)c1 [Compound I-174] | 0.52 | 0.52 | 0.63 | 1.25 | 256 | 256 | 256 | 256
– | – | – | – | NC(N)=Nc1nc(-c2ccccc2C(F)(F)F)c[se]1 [Compound I-41] | 0.38 | 0.5 | 0.38 | 0.63 | 256 | 256 | 256 | 256

Reference: patent US20260250257A1, “ANTIBACTERIAL AND SYNERGISTIC ACTIVE COMPOUND AND USE THEREOF” (EAST CHINA UNIVERSITY OF SCIENCE AND TECHNOLOGY, priority 2023, published 2026)
